Assay [1] deals with T1, sGC α1/β1 heterodimer stably expressed in CHO-K1 cells (CHO-K1/sGC) (Homo sapiens, UniProt Q02108+Q02153).
T1 construct: expressed in transfected cells
T1 sequence (Q02108 1-690): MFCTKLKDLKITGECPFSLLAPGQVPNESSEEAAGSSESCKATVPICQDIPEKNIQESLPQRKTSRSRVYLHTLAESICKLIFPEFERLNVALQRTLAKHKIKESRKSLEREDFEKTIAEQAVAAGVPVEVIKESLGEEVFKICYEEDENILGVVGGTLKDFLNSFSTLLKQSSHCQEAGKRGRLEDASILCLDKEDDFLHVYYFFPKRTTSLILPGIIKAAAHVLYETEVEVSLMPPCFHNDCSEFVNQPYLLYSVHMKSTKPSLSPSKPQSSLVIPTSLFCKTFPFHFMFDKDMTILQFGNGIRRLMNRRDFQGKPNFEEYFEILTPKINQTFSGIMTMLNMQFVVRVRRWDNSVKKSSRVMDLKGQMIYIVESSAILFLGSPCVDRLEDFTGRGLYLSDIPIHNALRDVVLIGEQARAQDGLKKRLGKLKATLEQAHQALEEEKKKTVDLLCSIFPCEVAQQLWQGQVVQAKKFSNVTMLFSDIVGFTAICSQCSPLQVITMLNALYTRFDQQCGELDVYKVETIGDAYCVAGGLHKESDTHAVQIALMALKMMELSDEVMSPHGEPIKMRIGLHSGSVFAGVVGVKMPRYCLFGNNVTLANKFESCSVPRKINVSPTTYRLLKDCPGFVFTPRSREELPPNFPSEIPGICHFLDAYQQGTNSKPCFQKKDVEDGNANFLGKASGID
T1 sequence (Q02153 1-619): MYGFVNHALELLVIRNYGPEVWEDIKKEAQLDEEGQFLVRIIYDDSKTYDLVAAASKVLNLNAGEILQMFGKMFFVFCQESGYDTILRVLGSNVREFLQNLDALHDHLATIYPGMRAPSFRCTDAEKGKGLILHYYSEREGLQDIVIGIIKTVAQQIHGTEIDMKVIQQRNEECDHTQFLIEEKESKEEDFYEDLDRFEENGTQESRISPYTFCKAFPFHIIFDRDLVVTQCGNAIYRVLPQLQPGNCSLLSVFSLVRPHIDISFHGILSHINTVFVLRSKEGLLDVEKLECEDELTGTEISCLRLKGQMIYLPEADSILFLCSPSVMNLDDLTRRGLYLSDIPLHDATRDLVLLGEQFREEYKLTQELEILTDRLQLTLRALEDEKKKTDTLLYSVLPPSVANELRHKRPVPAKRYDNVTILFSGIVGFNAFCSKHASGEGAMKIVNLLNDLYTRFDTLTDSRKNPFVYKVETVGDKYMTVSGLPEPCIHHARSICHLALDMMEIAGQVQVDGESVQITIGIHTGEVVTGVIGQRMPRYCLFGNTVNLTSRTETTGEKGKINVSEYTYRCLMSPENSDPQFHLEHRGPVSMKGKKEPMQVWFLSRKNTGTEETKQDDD
Put plainly: Cell-based sGC functional assay (CASA assay), cGMP generation by HTRF. The conditions noted are these: for Emax: CHO-K1, maximum cGMP production of Compound A set to 100% activation, read-out: % Act. (percent activation relative to Compound A); for EC50: CHO-K1/sGC cells, 1 hr at 37° C., 4P fit, presence or absence of DETA-NO not given, read-out: IP (nM) (inflection point). The method, boiled down: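 CHO-K1/sGC cells (4×10^5/mL) in EBSS with 5 mM MgCl2, 10 mM HEPES, 0.05% BSA and 0.5 mM IBMX, treated 1 hr at 37° C with compounds (2.5% DMSO) with or without 1 μM DETA-NO. cGMP measured by HTRF, expressed as % of a reference heme-dependent activator's maximum; inflection point and fold induction from 4P fit.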

For assay [2], the system named is systolic blood pressure in spontaneously hypertensive rats. Briefly: Acute efficacy in spontaneously hypertensive rats (SHR), telemetry blood pressure. It is filed as in vivo, rat. The source says: Acute Efficacy in Spontaneously Hypertensive Rats (SHR)
Spontaneously hypertensive rats (SHR, male, Charles River) were implanted with DSI TA11 PA-C40 telemetry device (Data Sciences, Inc., St. Paul, Minn.) under isoflurane or ketamine/metomidine anesthesia. The telemetry unit catheter was inserted into the descending aorta via the femoral artery and the telemetry device was implanted subcutaneously in the left flank area. Animals were allowed to recover from surgery for 14 days before the start of any studies. Blood pressure, heart rate, and activity signals from conscious, freely moving rats were recorded continuously for 30 seconds every 10 minutes. On the day prior to administration of compound, a single oral dose of vehicle (10% transcutol/20% Cremophor/70% water) was administered to all animals to establish baseline control data. The blood pressure lowering efficacy of compound (PO) or vehicle was evaluated following a single oral gavage. Data were collected as hourly averages, and changes in blood pressure were calculated by subtracting control baseline data on an hourly basis. Animals were maintained on normal diet with a 12 hour light-dark cycle.
Maximum peak decreases of systolic blood pressure (SBP) in SHR at a particular P.O. dose (mpk milligrams per kilogram) for the following representative compounds are provided below in Table 6.
Category A=SBP in SHRs <20 mmHg; Category B=SBP in SHRs 20-40 mmHg;
Category C=SBP in SHRs >40 mmHg

With `CC1(c2ccc(F)cc2)C(=O)Nc2nc(-c3cn4ccnc4c(Oc4cccc(F)c4)n3)nc(N)c21` (centres unmarked) [Example 1A, 4-Amino-2-[8-(3-fluorophenoxy)imidazo[1,2-a]pyrazin-6-yl]-5-(4-fluorophenyl)-5-methyl-5,7-dihydro-6H-pyrrolo[2,3-d]pyrimidin-6-one], in assay [1], the Emax is 110% and the EC50 turned out to be 17 nM. In addition, the “Maximum peak decrease of systolic blood pressure (SBP), Category” value (shortened to “Maximum peak decrease”) in assay [2] (single oral dose 0.3 mpk P.O.) is given as “B (Category B=SBP in SHRs 20-40 mmHg)”.
Take `CC1(c2ccc(F)cc2)C(=O)Nc2nc(-c3cn4ccnc4c(OCC(F)(F)C(F)(F)F)n3)nc(N)c21` (centres unmarked) [Example 2A, 4-amino-5-(4-fluorophenyl)-5-methyl-2-[8-(2,2,3,3,3-pentafluoropropoxy)imidazo[1,2-a]pyrazin-6-yl]-5,7-dihydro-6H-pyrrolo[2,3-d]pyrimidin-6-one]: in assay [1], the Emax was determined as 127% and the EC50 was found to be 317 nM. Further, in assay [2] (single oral dose 3.0 mpk P.O.), the “Maximum peak decrease” value is given as “B (Category B=SBP in SHRs 20-40 mmHg)”.
As to `CC1(c2ccc(F)cc2)C(=O)Nc2nc(-c3cn4ccnc4c(Oc4ccccc4F)n3)nc(N)c21` (centres unmarked) [Example 4A, 4-amino-2-[8-(2-fluorophenoxy)imidazo[1,2-a]pyrazin-6-yl]-5-(4-fluorophenyl)-5-methyl-5,7-dihydro-6H-pyrrolo[2,3-d] pyrimidin-6-one], in assay [1], the Emax was determined as 100% and the EC50 amounted to 62 nM. Besides, the “Maximum peak decrease” value in assay [2] (single oral dose 1.0 mpk P.O.) is “C (Category C=SBP in SHRs >40 mmHg)”.
On to `CC1(c2ccccc2)C(=O)Nc2nc(-c3cn4ccnc4c(Oc4ccccc4)n3)nc(N)c21` (centres unmarked) [Example 10B, 4-amino-5-methyl-2-(8-phenoxy-imidazo[1,2-a]pyrazin-6-yl)-5-phenyl-5,7-dihydro-6H-pyrrolo[2,3-d] pyrimidin-6-one], for which, in assay [1], the Emax amounted to 127% and the EC50 was 45 nM. Moreover, in assay [2] (single oral dose 0.3 mpk P.O.), the “Maximum peak decrease” value is recorded as “B (Category B=SBP in SHRs 20-40 mmHg)”.
Take `CC1(c2ccc(Cl)cc2)C(=O)Nc2nc(-c3cn4ccnc4c(Oc4cccnc4)n3)nc(N)c21` (centres unmarked) [Example 30A, 4-amino-5-(4-chlorophenyl)-5-methyl-2-[8-(pyridin-3-yloxy)imidazo[1,2-a]pyrazin-6-yl]-5,7-dihydro-6H-pyrrolo[2,3-d] pyrimidin-6-one]: in assay [1], the Emax stood at 168% and the EC50 is 171 nM. The “Maximum peak decrease” value in assay [2] (single oral dose 1.0 mpk P.O.) is “B (Category B=SBP in SHRs 20-40 mmHg)”.
For `CC1(c2ccc(Cl)cc2)C(=O)Nc2nc(-c3cn4ccnc4c(OCC4CC(F)(F)C4)n3)nc(N)c21` (centres unmarked) [Example 32A, 4-amino-5-(4-chlorophenyl)-2-{8-[(3,3-difluoro-cyclobutyl)methoxy]imidazo [1,2-a]pyrazin-6-yl}-5-methyl-5,7-dihydro-6H-pyrrolo[2,3-d] pyrimidin-6-one], in assay [1], the Emax came out at 129% and the EC50 worked out at 157 nM. Also, the “Maximum peak decrease” value in assay [2] (single oral dose 1.0 mpk P.O.) is reported as “B (Category B=SBP in SHRs 20-40 mmHg)”.
In the case of `CC1(c2ccc(F)cc2)C(=O)Nc2nc(-c3cn4ccnc4c(NCC(F)(F)C(F)(F)F)n3)nc(N)c21` (centres unmarked) [Example 34A, 4-amino-5-(4-fluorophenyl)-5-methyl-2-{8-[(2,2,3,3,3-pentafluoropropyl)amino]imidazo [1,2-a]pyrazin-6-yl}-5,7-dihydro-6H-pyrrolo[2,3-d] pyrimidin-6-one], in assay [1], the Emax came to 117% and the EC50 was determined as 164 nM. Further, in assay [2] (single oral dose 3.0 mpk P.O.), the “Maximum peak decrease” value is “A (Category A=SBP in SHRs <20 mmHg)”.
`CC1(c2ccc(Cl)cc2)C(=O)Nc2nc(-c3cn4ccnc4c(NCC4CC(F)(F)C4)n3)nc(N)c21` (centres unmarked) [Example 58A, 4-amino-5-(4-chlorophenyl)-2-(8-{[(3,3-difluorocyclo-butyl)methyl]amino}imidazo [1,2-a]pyrazin-6-yl)-5-methyl-5,7-dihydro-6H-pyrrolo[2,3-d] pyrimidin-6-one]: in assay [1], the Emax turned out to be 109% and the EC50 was determined as 163 nM.
As for `CC1(c2ccc(Cl)cc2)C(=O)Nc2nc(-c3cn4ccnc4c(NCC4CCOCC4)n3)nc(N)c21` (centres unmarked) [Example 59A, 4-amino-5-(4-chlorophenyl)-5-methyl-2-{8-[(tetrahydro-2H-pyran-4-ylmethyl)amino]imidazo [1,2-a]pyrazin-6-yl}-5,7-dihydro-6H-pyrrolo[2,3-d] pyrimidin-6-one], in assay [1], the Emax is 167% and the EC50 was 701 nM.
As for `CC1(c2ccc(Cl)cc2)C(=O)Nc2nc(-c3cn4ccnc4c(NCc4ccccc4)n3)nc(N)c21` (centres unmarked) [Example 60A, 4-amino-2-[8-(benzylamino)imidazo[1,2-a]pyrazin-6-yl]-5-(4-chloro-phenyl)-5-methyl-5,7-dihydro-6H-pyrrolo[2,3-d] pyrimidin-6-one], in assay [1], the Emax was determined as 72% and the EC50 stood at 7 nM.
`CC(C)CSc1nc(-c2nc(N)c3c(n2)NC(=O)C3(C)c2ccc(F)cc2)cn2ccnc12` (centres unmarked) [Example 63A, 4-amino-5-(4-fluorophenyl)-5-methyl-2-{8-[(2-methylpropyl)sulfanyl]imidazo [1,2-a]pyrazin-6-yl}-5,7-dihydro-6H-pyrrolo[2,3-d] pyrimidin-6-one]: in assay [1], the Emax amounted to 93% and the EC50 is 10 nM.
`CC1(c2ccc(F)cc2)C(=O)Nc2nc(-c3cn4ccnc4c(SCCC(F)(F)F)n3)nc(N)c21` (centres unmarked) [Example 64A, 4-amino-5-(4-fluorophenyl)-5-methyl-2-{8-[(3,3,3-trifluoro-propyl)sulfanyl]imidazo[1,2-a]pyrazin-6-yl}-5,7-dihydro-6H-pyrrolo[2,3-d] pyrimidin-6-one]: in assay [1], the Emax came out at 67% and the EC50 is 73 nM.
For `CC(Nc1nc(-c2nc(N)c3c(n2)NC(=O)C3(C)c2ccc(Cl)cc2)cn2ccnc12)c1ccccc1` (centres unmarked) [Example 73, 4-amino-5-(4-chlorophenyl)-5-methyl-2-{8-[(1-phenylethyl)amino]imidazo [1,2-a]pyrazin-6-yl}-5,7-dihydro-6H-pyrrolo[2,3-d] pyrimidin-6-one], in assay [1], the Emax amounted to 81% and the EC50 was found to be 336 nM.
Regarding `CC(Nc1nc(-c2nc(N)c3c(n2)NC(=O)C3(C)c2ccc(Cl)cc2)cn2ccnc12)c1ccccc1` (centres unmarked) [Example 74, 4-amino-5-(4-chlorophenyl)-5-methyl-2-{8-[(1-phenylethyl)amino]imidazo [1,2-a]pyrazin-6-yl}-5,7-dihydro-6H-pyrrolo[2,3-d] pyrimidin-6-one], in assay [1], the EC50 stood at 231 nM. In addition, in assay [1] (maximum cGMP production of Compound A set to 100% activation), the “% Act. (percent activation relative to Compound A)” value stood at 87%.

(Values after patent US10245264B2, “Substituted imidazo[1,2-a]pyrazines as soluble guanylate cyclase activators” (Merck Sharp & Dohme Corp., priority 2015, dated 2019).)
